From PubChem BioAssay (NCI)
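How tested: cells in 96-well plates exposed to compound for 48 hours at five concentrations. Abbreviation: GI50, concentration required for 50% inhibition of growth. Definition used: TGI = concentration required for complete inhibition of growth.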

Legend:
Test in all cases: NCI anticancer screen, dose series, 48 h
BT-549 breast = tested on: BT-549 breast
EKVX NSCLC = tested on: EKVX NSCLC
HT29 colon = tested on: HT29 colon
MOLT-4 leukemia = tested on: MOLT-4 leukemia
NCI-H226 lung = tested on: NCI-H226 lung
NCI-H460 lung = tested on: NCI-H460 lung
OVCAR-4 ovarian = tested on: OVCAR-4 ovarian
OVCAR-5 ovarian = tested on: OVCAR-5 ovarian
UO-31 renal = tested on: UO-31 renal

| SMILES | TGI (BT-549 breast) | TGI (EKVX NSCLC) | TGI (HT29 colon) | TGI (MOLT-4 leukemia) | TGI (NCI-H226 lung) | TGI (NCI-H460 lung) | TGI (OVCAR-4 ovarian) | TGI (OVCAR-5 ovarian) | TGI (UO-31 renal) | GI50 (BT-549 breast) | GI50 (EKVX NSCLC) | GI50 (HT29 colon) | GI50 (MOLT-4 leukemia) | GI50 (NCI-H226 lung) | GI50 (NCI-H460 lung) | GI50 (OVCAR-4 ovarian) | GI50 (OVCAR-5 ovarian) | GI50 (UO-31 renal) |
| --- | --- | --- | --- | --- | --- | --- | --- | --- | --- | --- | --- | --- | --- | --- | --- | --- | --- | --- |
| Nc1c(-c2ccccc2)c2ccc([N+](=O)[O-])cc2c(=O)n1-c1cccc(C(=O)O)c1 | > 100 µM | > 100 µM | > 100 µM | > 100 µM | > 100 µM | > 100 µM | > 100 µM | > 100 µM | > 100 µM |  |  |  |  |  |  |  |  |  |
| COc1cc(/C=C2\C(=O)N(c3ccc(Cl)cc3)C(c3ccccc3)S2(=O)=O)cc(OC)c1OC (configuration not stated) | > 100 µM | > 100 µM | > 100 µM | > 100 µM | > 100 µM | > 100 µM | > 100 µM | > 100 µM | > 100 µM |  |  |  |  |  |  |  |  |  |
| CCOC(=O)CC1(N)CC2c3ccccc3OC(=O)C2C(=O)N1 (configuration not stated) | > 100 µM | > 100 µM | > 100 µM | > 100 µM | > 100 µM | > 100 µM | > 100 µM | > 100 µM | > 100 µM |  |  |  |  |  |  |  |  |  |
| Oc1ccccc1/C=N/c1nc(-c2ccccc2)cs1 | > 100 µM | > 100 µM | > 100 µM | 74.7 µM | > 100 µM | > 100 µM | > 100 µM | > 100 µM | > 100 µM | 59.5 µM | > 100000 nM | 58.2 µM | 25.4 µM | 35.1 µM | > 100000 nM | 33.7 µM | 32.2 µM | 44.7 µM |
| COc1ccc(C2CC(c3cccc(Nc4ccncc4)c3)=NN2c2ccccc2)cc1 (configuration not stated) | 20.6 µM | 10.2 µM | 6.87 µM | 4.63 µM | 8.83 µM | 3.34 µM | 3.62 µM | 12.1 µM | 2.92 µM | 4.94 µM | 2730 nM | 2.47 µM | 2.07 µM | 2.31 µM | 1800 nM | 1.79 µM | 3.29 µM | 1.41 µM |
| O=[N+]([O-])C(/C=C(\Cl)[N+](=O)[O-])=C(Nc1ccccc1)Nc1ccccc1 | 20.7 µM | 27.4 µM | 25.7 µM | 6.12 µM | 27.4 µM | 30 µM | 20.6 µM | 20.1 µM | 25.3 µM |  |  |  |  |  |  |  |  |  |
| CC(C)(C)[C@H]1NC(=O)CN1C(=O)OCc1ccccc1 | > 100 µM | > 100 µM | > 100 µM | > 100 µM | > 100 µM | > 100 µM | > 100 µM | > 100 µM | > 100 µM |  |  |  |  |  |  |  |  |  |
| CCOC(=O)CC1C(C(=O)OCC)=Cn2c([nH]c3cccc4cccc2c43)=C1C(=O)OCC (configuration not stated) | > 100 µM | > 100 µM | > 100 µM | > 100 µM | > 100 µM | > 100 µM | > 100 µM | > 100 µM | > 100 µM |  |  |  |  |  |  |  |  |  |
| CCOC(=O)NCC(=O)NCC(=O)NCC(N)=O | > 100 µM | > 100 µM | > 100 µM | > 100 µM | > 100 µM |  | > 100 µM | > 100 µM | > 100 µM |  |  |  |  |  |  |  |  |  |
| COc1ccc(Nc2nc(N)c(C(=O)c3ccco3)s2)cc1 | > 100 µM | > 100 µM | > 100 µM | > 55.7 µM | > 72.2 µM | > 53.3 µM | > 89.9 µM | > 100 µM | > 70.2 µM |  |  |  |  |  |  |  |  |  |
| COc1ccc(/C=C2\N=C3N(Cc4ccccc4)C=C(N)N3C2=O)cc1 | > 100 µM | > 100 µM | > 100 µM | > 100 µM | > 100 µM | > 100 µM | > 100 µM | > 100 µM | > 100 µM |  |  |  |  |  |  |  |  |  |
| CCOC(=O)CSc1nc(-c2ccc(Cl)cc2)c(C#N)c(=O)[nH]1 | > 100 µM | > 100 µM | > 100 µM | > 100 µM | > 100 µM | > 100 µM | > 100 µM | > 100 µM | > 100 µM |  |  |  |  |  |  |  |  |  |
| COc1cc2ccc(C(C)NCC#N)cc2cc1OC (configuration not stated) | > 100 µM | > 100 µM | > 100 µM | > 100 µM | > 100 µM | > 100 µM | > 100 µM | > 100 µM | > 100 µM |  |  |  |  |  |  |  |  |  |
| CC[P+](c1ccccc1)(N(C)C)N(C)C | > 100 µM | > 100 µM | > 100 µM | > 100 µM | > 100 µM | > 100 µM | > 100 µM | > 100 µM | > 100 µM |  |  |  |  |  |  |  |  |  |
| COc1cc2c(cc1OCCN1CCN(CCOc3cc4c(cc3OC)C(=O)N3CCC[C@H]3C=N4)CC1)N=C[C@@H]1CCCN1C2=O | > 79.1 µM | > 100 µM | > 100 µM | 6.78 µM | 66.2 µM | > 100 µM | > 100 µM | 63.7 µM | > 73.7 µM |  |  |  |  |  |  |  |  |  |
| Cc1cc(S(=O)(=O)NC2=NCc3c(F)cccc3N2)c(S)cc1Cl | > 100 µM | > 100 µM |  | > 100 µM | > 100 µM | > 100 µM | > 100 µM | > 100 µM | > 100 µM |  |  |  |  |  |  |  |  |  |
| Nc1ccc2c3c1cccc3c(=O)n1c3ccc(Cc4ccc5c(c4)nc4c6ccc(N)c7cccc(c(=O)n54)c76)cc3nc21 | > 100 µM | > 100 µM | > 100 µM | > 100 µM | > 100 µM | > 100 µM | > 100 µM | > 100 µM | > 100 µM |  |  |  |  |  |  |  |  |  |
| CC(C)(C)c1cc(C(C)(C)C)c2sc(=O)oc2c1O | 32.9 µM | 29.2 µM | 33.2 µM | > 100 µM | 36.2 µM | 18.8 µM | 27.6 µM | 33.4 µM | 23.8 µM |  |  |  |  |  |  |  |  |  |
| Cc1cc(C)nc(NS(=O)(=O)c2ccc(NC(=O)c3ccc4nc5ccccc5c(Nc5ccc(S(=O)(=O)N=C(N)N)cc5)c4c3)cc2)n1 | > 100 µM | > 100 µM | > 100 µM | > 100 µM | > 100 µM | > 100 µM | > 100 µM | > 100 µM | > 100 µM |  |  |  |  |  |  |  |  |  |
| CC1(c2ccc(Cl)cc2)c2ccccc2C(=O)N1CCCN1C(=O)c2ccccc2C1=O (configuration not stated) | > 100 µM | 7.25 µM | > 100 µM | > 100 µM | 63.4 µM |  | > 100 µM |  | > 100 µM |  |  |  |  |  |  |  |  |  |
| O=c1[nH]c2ccccc2c(=O)n1/N=C\c1ccccc1O | > 100 µM | > 100 µM | > 100 µM | > 100 µM | > 100 µM | > 100 µM |  | > 100 µM | > 100 µM |  |  |  |  |  |  |  |  |  |
